Counter-ions that a name gives are not always drawn.
Columns and labels:
[1] = system: thoracic aortae rings (potassium chloride-induced contraction); experiment: Calcium antagonist Test 1: inhibition of potassium chloride-induced contraction of rat thoracic aortic rings; type: cell-based, Sprague-Dawley rat; conditions: 50 mM potassium chloride, 37° C., active if >50% inhibition at 3×10^-5 M, read-out: bath concentration at which more than 50% of the potassium chloride-induced contraction was inhibited
Protocol: Male Sprague-Dawley rats, weighing 300-470 g, were killed and their thoracic aortae were removed immediately, cleared of blood, fat and connective tissue and cut into rings 1-2 mm wide. […] The bath media was maintained at 37° C. and aerated with 5% carbon dioxide in oxygen.
At the start of the test, the aortic rings were stretched to an initial tension of one gram. The tissues were then allowed to equilibrate for 90 minutes until they reached a steady tension. Changes in tension were recorded using a force displacement transducer coupled to a Grass polygraph.
The potassium chloride-induced contractions were repeated until a constant tension was obtained. These initial contractions served as a control for subsequent contractions induced in the presence of a test compound.
Each compound was dissolved in ethanol to a stock concentration of 10^-2 M. The ability of these compounds to inhibit a potassium chloride-induced contraction was determined by comparing the tension developed in the presence of each compound versus the control.

[2] = system: rat; experiment: Test 2: antihypertensive activity in the rat (MABP and heart rate); type: in vivo; conditions: for antihypertensive activity (comparison in words): Verapamil 50 mg/kg versus 1-methylethyl substituted thio compound 100 mg/kg; for heart rate (HR) / mean arterial blood pressure (MABP): average two rats
Protocol: Antihypertensive activity was measured in the rat by the mean arterial blood pressure (MABP) in millimeters of mercury and heart rate (HR) in beats per minute (average two rats).

[3] = system: renal hypertensive dogs; experiment: Test 3: antihypertensive activity in renal hypertensive dogs; type: in vivo, dog
Protocol: Antihypertensive activity was also measured in renal hypertensive dogs.

SMILES: COc1ccc(CCN(C)CCSC(C#N)(c2ccc(OC)c(OC)c2)C(C)C)cc1OC (stereo not drawn) [1-methylethyl substituted thio compound, A-[[2-[[2-(3,4dimethoxyphenyl)ethyl]methylamino]ethyl]thio]-3,4-dimethoxy-A-(1-methylethyl) benzeneacetonitrile monohydrochloride]
- IC50 [1]: 800 nM
- antihypertensive activity (comparison in words) [2]: comparable antihypertensive activity
- heart rate (HR) ([2]; dose of 100 mg/kg): 320 beats per minute
- mean arterial blood pressure (MABP) ([2]; dose of 100 mg/kg): 97 millimeters of mercury
- increase in HR to ([3]; dose of 20 mg/kg): above 153
- drop in blood pressure ([3]; dose of 20 mg/kg, over a two hour period): 45 millimeter

SMILES: COc1ccc(CCN(C)CCCC(C#N)(c2ccc(OC)c(OC)c2)C(C)C)cc1OC (stereo not drawn) [Verapamil, A-[3-[[2-(3,4-dimethoxyphenyl)ethyl]methylamino]propyl]-3,4-dimethoxy-A-(1-methylethyl) benzeneacetonitrile, reference compound]
- antihypertensive activity (comparison in words) [2]: comparable antihypertensive activity
- heart rate (HR) ([2]; dose of 50 mg/kg): 350 beats per minute
- mean arterial blood pressure (MABP) ([2]; dose of 50 mg/kg): 93 millimeters of mercury
- increase in HR of ([3]; dose of 10 mg/kg): 75
- drop in blood pressure ([3]; dose of 10 mg/kg, over a four hour period): 30 millimeters of mercury

SMILES: COc1ccc(CCN(C)CCSC(C#N)c2ccc(OC)c(OC)c2)cc1OC (stereo not drawn) [unsubstituted thio compound, A-[[2-[[2(3,4-dimethoxyphenyl)ethyl]methylamino]ethyl]thio]-3,4-dimethoxy-A-benzeneacetonitrile monohydrochloride]
- IC50 [1]: 3000 nM

From patent US4833162A, “Substituted benzeneacetonitriles and their use as calcium channel blockers” (American Cyanamid Company, priority 1988, dated 1989)
